The source made the active and inactive calls. The calls are words filed in the database; no cut-off is given here.
Key:
[1] = target: Cyclin-dependent kinase 5/CDK5 activator 1 (Homo sapiens, UniProt Q00535); test: (§1) Inhibition of human recombinant GST-fused CDK5/P25 expressed in insect Sf9 cells using RBER-CHKtide as substrate assessed as incorporation of 33Pi after 60 mins by microplate scintillation counting analysis
[2] = target: Cyclin-dependent kinase 1/cyclin B1 (Homo sapiens, UniProt P06493); test: (§2) Inhibition of human recombinant GST-fused CDK1/cyclin B expressed in insect Sf9 cells using RBER-CHKtide as substrate assessed as incorporation of 33Pi after 60 mins by microplate scintillation counting analysis
[3] = target: Glycogen synthase kinase-3 beta (Homo sapiens, UniProt P49841); test: Inhibition of human recombinant GST-fused GSK-3beta expressed in insect Sf9 cells using RBER-CHKtide as substrate assessed as incorporation of 33Pi after 60 mins by microplate scintillation counting analysis
[4] = target: Cyclin-dependent kinase 5/CDK5 activator 1 (Homo sapiens) (UniProt Q00535+Q15078); test: as §1
[5] = target: Cyclin-dependent kinase 1/cyclin B1 (Homo sapiens) (UniProt P06493+P14635); test: as §2
Cyclin-dependent kinase 1/cyclin B1 (Homo sapiens), sequence (P06493 whole entry, looked up): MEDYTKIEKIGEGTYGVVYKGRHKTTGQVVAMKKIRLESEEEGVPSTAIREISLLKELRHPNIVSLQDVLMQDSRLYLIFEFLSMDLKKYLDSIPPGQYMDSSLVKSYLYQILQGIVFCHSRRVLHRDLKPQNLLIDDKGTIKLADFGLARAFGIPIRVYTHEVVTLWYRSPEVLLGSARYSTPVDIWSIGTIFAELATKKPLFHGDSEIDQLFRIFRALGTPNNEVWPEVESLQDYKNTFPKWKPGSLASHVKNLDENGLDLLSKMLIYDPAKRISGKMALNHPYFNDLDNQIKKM
Cyclin-dependent kinase 1/cyclin B1 (Homo sapiens), sequence (P14635 whole entry, looked up): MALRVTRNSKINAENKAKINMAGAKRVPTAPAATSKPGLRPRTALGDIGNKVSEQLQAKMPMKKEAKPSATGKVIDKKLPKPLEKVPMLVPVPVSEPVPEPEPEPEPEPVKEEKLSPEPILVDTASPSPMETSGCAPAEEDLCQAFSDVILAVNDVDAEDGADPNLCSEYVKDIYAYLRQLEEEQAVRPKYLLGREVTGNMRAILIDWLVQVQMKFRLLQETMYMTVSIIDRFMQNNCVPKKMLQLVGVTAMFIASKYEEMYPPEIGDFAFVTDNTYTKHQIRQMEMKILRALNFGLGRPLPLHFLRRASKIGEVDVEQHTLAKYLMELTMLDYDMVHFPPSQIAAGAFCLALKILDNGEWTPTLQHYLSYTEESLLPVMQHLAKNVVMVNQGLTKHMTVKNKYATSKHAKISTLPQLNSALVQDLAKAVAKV

Cyclin-dependent kinase 1/cyclin B1, sequence (P06493 whole entry, the tested form may be a part): as the sequence (P06493 whole entry, looked up) above
Cyclin-dependent kinase 1/cyclin B1, sequence (P14635 whole entry, further chain, the tested form may be a part): as the sequence (P14635 whole entry, looked up) above
Cyclin-dependent kinase 5/CDK5 activator 1, sequence (Q00535 whole entry, the tested form may be a part): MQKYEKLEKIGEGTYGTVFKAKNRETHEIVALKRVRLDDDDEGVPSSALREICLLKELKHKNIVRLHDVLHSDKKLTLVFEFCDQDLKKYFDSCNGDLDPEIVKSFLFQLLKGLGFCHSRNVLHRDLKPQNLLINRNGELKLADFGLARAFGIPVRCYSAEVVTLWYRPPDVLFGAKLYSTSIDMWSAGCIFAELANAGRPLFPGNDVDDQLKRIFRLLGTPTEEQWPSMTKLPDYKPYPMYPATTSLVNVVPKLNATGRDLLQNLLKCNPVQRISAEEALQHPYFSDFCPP
Cyclin-dependent kinase 5/CDK5 activator 1, sequence (Q15078 whole entry, further chain, the tested form may be a part): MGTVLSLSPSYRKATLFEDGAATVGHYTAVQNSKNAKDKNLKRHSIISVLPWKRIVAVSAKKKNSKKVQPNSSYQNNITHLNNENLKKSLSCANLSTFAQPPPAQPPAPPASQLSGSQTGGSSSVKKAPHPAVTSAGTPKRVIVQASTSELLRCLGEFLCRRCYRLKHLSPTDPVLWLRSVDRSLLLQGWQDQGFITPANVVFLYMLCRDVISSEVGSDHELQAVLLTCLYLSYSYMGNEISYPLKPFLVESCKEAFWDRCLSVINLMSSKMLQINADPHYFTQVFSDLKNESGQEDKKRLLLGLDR
Cyclin-dependent kinase 5/CDK5 activator 1 (Homo sapiens), sequence (Q00535 whole entry): as the sequence (Q00535 whole entry, the tested form may be a part) above
Cyclin-dependent kinase 5/CDK5 activator 1 (Homo sapiens), sequence (Q15078 99-307 partner limits assumed): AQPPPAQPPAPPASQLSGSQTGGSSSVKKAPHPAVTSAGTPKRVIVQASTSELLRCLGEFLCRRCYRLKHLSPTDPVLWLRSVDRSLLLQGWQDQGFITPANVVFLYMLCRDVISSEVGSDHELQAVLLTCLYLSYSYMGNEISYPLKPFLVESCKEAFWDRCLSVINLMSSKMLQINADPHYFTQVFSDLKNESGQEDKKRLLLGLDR

Row | Compound | Ki [1] [µM] | Ki [2] [µM] | Ki ([3]; read-out: Ki) [µM] | Ki ([3]; sf9) | inhibition [4] | inhibition [5] | inhibition [3]
1 | COc1ccc2oc3ncc(OCc4ccccc4)c(-c4ccccc4)c3c2c1 | 25.1 |  |  |  |  |  | 
2 | COc1cc2c(oc3ncc(OCc4ccccc4)c(-c4ccccc4)c32)c2ccccc12 | > 1000 | > 1000 | > 1000 |  |  |  | 
3 | CNC(=O)c1cnc2oc3ccc(O)cc3c2c1-c1ccccc1 | > 1000 | > 1000 | 9 |  |  |  | 
4 | Oc1ccc2oc3ncc(OCc4ccccc4)c(-c4ccccc4)c3c2c1 |  |  |  |  | Active | Active | Active

The next lines start with the values.

Row | Ki [1] [µM] | Ki [2] [µM] | Ki ([3]; read-out: Ki) [µM] | Ki ([3]; sf9) | inhibition [4] | inhibition [5] | inhibition [3] | Compound
5 | 13.6 | 0.2 | 5.4 |  |  |  |  | COc1cc2oc3ncc(OCc4ccccc4)c(-c4ccccc4)c3c2c(OC)c1O
6 | 12.9 | 2 | 4.8 |  |  |  |  | NCCNC(=O)c1cnc2oc3ccc(O)cc3c2c1-c1ccccc1
7 | 16.7 | 2.1 |  | ND(Insoluble) |  |  |  | CCNC(=O)c1cnc2oc3ccc(O)cc3c2c1-c1ccccc1
8 | 14.6 | 1.6 | 4.4 |  |  |  |  | CCCNC(=O)c1cnc2oc3ccc(O)cc3c2c1-c1ccccc1
9 | 13.8 | 1.9 |  | ND(Insoluble) |  |  |  | COc1cc2oc3ncc(OCc4ccccc4)c(-c4ccccc4)c3c2cc1O
